How the values were obtained:
[1] = Cytotoxicity: inhibition of CD4+ T-cell (CEM) proliferation; type: cell-based; conditions: human, CEM/0 cells (CD4+ T-cells), 50 % cytostatic concentration, mean±SD, n=2-3
[2] = Chemical hydrolysis in aqueous phosphate buffer (PBS, pH 7.3); type: physicochemical; conditions: aqueous 25 mM phosphate buffer, pH 7.3, 37 °C; removal of AB group; n.h. = no hydrolysis observed through cleavage of AB-mask
Method: γ‐(AB,alkyl)‐NTP prodrugs 6 and γ‐alkyl‐NTPs 7 were incubated in aqueous phosphate buffer (PBS, 25 mM, pH 7.3), or were exposed to pig liver esterase (PLE) in phosphate buffer (PBS) and to human CD4^+ T‐lymphocyte cell extracts to study their stability and the product distribution. The hydrolysis mixtures were analyzed by means of analytical rp‐18‐HPLC. The calculated half‐lives of prodrugs 6 (Table 1, t 1/2) reflect the removal of the bioreversible AB group to yield γ‐alkyl‐NTPs 7. Possible hydrolysis pathways and products are summarized in Scheme 4.
As hydrolysis products, a predominant formation of γ‐alkyl‐d4TTPs 7 and a very small amount of d4TDP […] was detected (approximately 3 %). After consumption of the starting material, no further increase of d4TDP concentration was observed. This supports the hypothesis that only the double‐γ‐esterified d4TTP prodrugs 6 were prone to a bond breakage between the γ‐ and β‐phosphate. […] In contrast to previous studies with TriPPPro‐NTPs 5 containing a second cleavable mask (first generation NTP prodrugs),[ ^23 , ^24 , ^25 ] no d4TTP was detected in these studies using 6 or 7. A side reaction occurred during the studies using compounds 7 that led to the formation of thymine by the cleavage of the glycosidic bond as reported before.[ ^19 , ^22 ]
(§1) ProLab 300 from Schott Co.. Thermomixer: Eppendorf Thermomixer 5436 and CellMedia Thermoschüttler basic were used. […]
Chemical hydrolysis of prodrugs of γ-(AB,alkyl) d4TTP 6 as well as the γ-alkyl-NTPs 7,15:
Stock solutions (50mM in DMSO-d6) of compounds 6,7 were prepared. After dilution of 11 µL stock solution with 100 µL milliQ water and 189 µL DMSO-d6 to 1.9mM hydrolysis solutions the reaction was started by addition of 300 µL phosphate buffer saline (PBS, 50mM, pH 7.3). The solution was incubated at 37 C in a thermomixer. An initial aliquot (25 µL) was taken directly and analyzed by analytical HPLC at 265-266 nm. Further aliquots were taken for monitoring the kinetic hydrolysis. The exponential decay curves (pseudo-first order) based on absolute integral values were calculated with commercially available software (OriginPro 9.0G) and yielded the half-lives t1/2 of the prodrugs via one determination. […]
The calculation of t1/2 was performed analogously to that for the chemical hydrolysis studies.
(§2) Preparation of cell extracts: Human CD4+ T-lymphocyte CEM cells were grown in RPMI-1640-based cell culture medium to a final density of ~3·10^6 cells/ml. Then, cells were centrifuged for 10 min at 1,250 rpm at 4 °C, washed twice with cold PBS, and the pellet was re-suspended at 10^8 cells/ml and sonicated (Hielscher Ultrasound Techn., 100% amplitude, 3·times for 10 sec) to destroy cell integrity. The resulting cell suspension was then centrifuged at 10,000 rpm to remove cell debris, and the supernatant divided in aliquots before being frozen at -80 C and used.
(1 picture or pasted object on this page, not shown here)

[3] = test system: HIV-2(ROD); assay: Anti-HIV activity assay, HIV-2-infected thymidine-kinase-deficient CEM/TK- cell cultures; type: cell-based; conditions: Human immunodeficiency virus 2, CEM-TK(-), read-out: EC50 CEM/TK− HIV-2, thymidine-kinase-deficient CEM/TK− cells, HIV-2; mean±SD, n=2-3
Method: (§3) γ‐(AB,alkyl)‐d4TTP prodrugs 6 and the γ‐alkyl‐d4TTPs 7 were evaluated for their ability to inhibit the replication of HIV in HIV‐1‐ or HIV‐2‐infected wild‐type CEM/0 as well as mutant thymidine‐kinase‐deficient CEM cell cultures (CEM/TK^−). For comparison, two TriPPPro derivatives 5 were also included in this assay.
(§4) Anti-HIV activity assay: Inhibition of HIV-1(IIIB)- and HIV-2(ROD)-induced cytopathicity in wild-type CEM/0 and thymidine kinase-deficient CEM/TK- cell cultures was measured in microtiter 96-well plates containing ~3·105 CEM cells/mL infected with 100 CCID50 of HIV per milliliter and containing appropriate dilutions of the test compounds. After 4−5 days of incubation at 37 °C in a CO2-controlled humidified atmosphere, CEM giant (syncytium) cell formation was examined microscopically. […]
(§5) was defined as the compound concentration required to inhibit HIV-induced giant cell formation by 50%. […]
(§6) The result was visualized by fluorescence imaging. […]
as §6

[4] = test system: HIV-1(IIIB); assay: Anti-HIV activity assay, HIV-1-infected wild-type CEM/0 cell cultures; type: cell-based; conditions: Human immunodeficiency virus 1, IIIB, CCRF-CEM, read-out: EC50 CEM/0 HIV-1
Method: as §3, §4, §5, §6, §6

[5] = test system: HIV-2(ROD); assay: Anti-HIV activity assay, HIV-2-infected wild-type CEM/0 cell cultures; type: cell-based; conditions: Human immunodeficiency virus 2, CCRF-CEM, read-out: EC50 CEM/0 HIV-2
Method: as §3, §4, §5, §6, §6

[6] = biological target: T1, HIV reverse transcriptase (RT) (Human immunodeficiency virus type 1 group M subtype B, UniProt P03366); assay: Primer extension assay with HIV-RT; type: biochemical, HIV-1; conditions: incubation 10, 20, 40 and 60 min; conversion of primer to n+1 product
T1 construct: reverse transcriptase (RT; an HIV‐encoded RNA‐dependent DNA polymerase); purchased Roboklon
Method: Primer-extension reactions:
HIV-RT and human DNA polymerase β and γ were obtained from Roboklon, human DNA polymerase α was obtained from Chimerx.
The primers and templates were purchased from Life Technologies and Microsynth. The fluorescent labeled primer was purchased
from Metabion and Microsynth. The gels were prepared with the size of 450mm×200mm×0.4mm according to the electrophoresis
5’-FITC and 5’-Cy3 labeled Primer-sequence:
The primer extension assays were performed under the following conditions:
FITC and Cy3 labeled primer extension assay:
1) Hybridization: After 5 min incubation at 95 °C in 20 mM Tris-HCl (pH 7.6) and 50 mM NaCl, the hybridization/annealing of the
primer to the template strand was achieved by a cooling phase from 95 °C to […] lasted more than 2 hours. […]
The assays were separated using a denaturating PAGE (15%). The result was visualized by fluorescence imaging. […]
as §6, §6

[7] = Enzyme-catalyzed hydrolysis in human CD4+ T-lymphocyte CEM cell extracts; type: in vitro ADME; conditions: CEM/0 cell extracts (CD4+ T-lymphocytes); human CD4+ T-lymphocyte CEM cell extracts, 37 °C; read-out: CEM/0 cell extracts t 1/2 (converted)
Method: The stability of prodrugs 6 and the γ‐alkyl‐NTPs 7 was further investigated in human CD4 ^+ T‐lymphocyte CEM cell extracts. […] Thus, an enzymatic cleavage reaction took place. Half‐lives as low as 0.4 h (6 az) to 5.2 h (6 dz) were determined. […] This is in accordance to our previous results for the DiPPro‐[ ^17 , ^18 ] or the TriPPPro‐compounds 5.[ ^22 , ^23 ] In all cases we observed the predominant formation of γ‐alkyl‐d4TTPs 7 and d4TDP 2 d in very low concentration (Figure 2 B) but no NTP formation was detected, in contrast to the studies using the previously described TriPPPro compounds 5.[ ^23 , ^24 ] However, the difference to the compounds bearing long lipophilic acyl groups was not very pronounced (2‐ to 3‐fold). In the case of γ‐(AB‐C4,alkyl‐C18)‐d4TTP 6 cz, γ‐C18‐d4TTP 7 z was detected as the main product. After 8 h incubation, the ratio of γ‐C18‐d4TTP 7 z and d4TDP 2 d was 5:1. This was in sharp contrast to the studies performed with TriPPPro compounds 5.[ ^23 , ^24 ] There, it was almost impossible to detect significant concentrations of d4TTP due to its fast dephosphorylation to form first d4TDP and finally d4TMP 2 m. […] The formation of thymine or d4TTP 2 t from γ‐C18‐d4TTP 7 z was not detected (Supporting Information, Figure SI2).
as §1
Enzyme-catalyzed hydrolysis of γ-(AB,alkyl)-d4TTPs 6, γ-alkyl-d4TTPs 7,15 and TriPPPros 5 in CEM cell extracts:
18 µL of the appropriate 50 mM DMSO-d6 stock solution was diluted to 6.0 mM hydrolysis solution by addition of 132.0 µL DMSO-d6.
7-10 different samples including 10 µL water and 10 µL hydrolysis solution were prepared in 2 mL Eppendorf® vials. The reaction was started by addition of 50 µL human CEM cell extract and the mixture was incubated at 37 °C for different time periods. The reactions were stopped by addition of 150 μL MeOH. The solution was kept on ice for 5 min followed by centrifugation for 5 min (13000 rpm).
The supernatants were filtered (Chromafil® RC-20/15 MS, 0.2 μm) and stored in liquid nitrogen. When testing, the samples were defrosted and injection volume with 80 μL was used for HPLC analysis. The calculation of t1/2 was performed analogously to that for the chemical hydrolysis studies.
as §2

CCCCCCCCCCCOP(=O)(O)OP(=O)(O)OP(=O)(O)OCC1C=CC(n2cc(C)c(=O)[nH]c2=O)O1 (stereo not shown) [7 x, γ‐C11‐d4TTP]
CC50 [1]: 78 ± 10 µM | PBS pH 7.3 t 1/2 [2]: n.h.^[c] | EC50 [3]: 16 ± 5 µM | EC50 [4]: 0.89 ± 0.28 µM | EC50 [5]: 0.26 ± 0.083 µM | comparison of substrate properties for HIV-RT [6]: better substrates | half-life at 0.86 mM [7]: > 30 h

— publication PMC7756582, “Prodrugs of γ‐Alkyl‐Modified Nucleoside Triphosphates: Improved Inhibition of HIV Reverse Transcriptase” (Angewandte Chemie (International Ed. in English), 2020)
